According to US20250228814A1, “COMBINATION THERAPIES FOR THE TREATMENT OF VIRAL INFECTIONS” (Flagship Pioneering Innovations VI, LLC, priority 2022, published 2025):
Where two headings read alike, the source gives them in different places.

Experiments:
SARS-CoV-2 [1] = type: cell-based; conditions: remdesivir alone, dose-dependent (FIG. 1)
[2] = system: SARS-CoV-2 virus [B.1.351]; type: in vivo, mice; conditions: in words
SARS-CoV-2 [3] = conditions: for Cell viability: ginkgetin 0 μM, 72 h, normalized to remdesivir 5 μM alone
SARS-CoV-2 [4] = assay: microbe, parasite or virus in culture
[5] = Severe acute respiratory syndrome coronavirus 2, Vero C1008, 72 h, read-out: Cell viability
[6] = Severe acute respiratory syndrome coronavirus 2, Vero C1008, read-out: host cell viability

CCC(CC)COC(=O)[C@H](C)N[P@](=O)(OC[C@H]1O[C@@](C#N)(c2ccc3c(N)ncnn23)[C@H](O)[C@@H]1O)Oc1ccccc1 [Remdesivir]
viral titers of SARS-CoV-2 (SARS-CoV-2 [1]): zero | infectious titers in lung ([2]; remdesivir 25 mg/kg intraperitoneally daily, day 4 post infection): strongest antiviral effect in reducing infectious titer | infectious titers in lung ([2]; remdesivir 5, 10 or 25 mg/kg intraperitoneally daily from day 1 post infection, day 4 post infection (FIG. 2)): dose-dependent effect on reducing infectious titers | Cell viability (SARS-CoV-2 [3]; remdesivir 0.3125 μM): 22.2% | Cell viability (SARS-CoV-2 [3]; remdesivir 0.625 μM): 23.2% | Cell viability (SARS-CoV-2 [3]; remdesivir 1.25 μM): 28.1% | Cell viability (SARS-CoV-2 [3]; remdesivir 2.5 μM): 37.6% | host cell viability of SARS-CoV-2-infected Vero E6 cells (SARS-CoV-2 [3]; remdesivir (5 μM) alone, in words): dose-dependently improved host cell viability | viability at 5 µM (SARS-CoV-2 [4]; [5]): 100% | viability at 1.25 µM (SARS-CoV-2 [4]; [6]): 29% | viability at 2.5 µM (SARS-CoV-2 [4]; [6]): 39%

COc1cc(O)c2c(=O)cc(-c3ccc(OC)c(-c4c(O)cc(O)c5c(=O)cc(-c6ccc(O)cc6)oc45)c3)oc2c1 [Ginkgetin]
viability (SARS-CoV-2 [3]; 1.5625-6.25 μM of ginkgetin alone): 18-24% | host cell viability (SARS-CoV-2 [3]; ginkgetin (25-50 μM) alone, in words): modest improvements in host cell viability | viability at 1.563 µM (SARS-CoV-2 [4]; [5]): 18.4% | viability at 3.125 µM (SARS-CoV-2 [4]; [5]): 17.1% | viability at 6.25 µM (SARS-CoV-2 [4]; [5]): 24.5% | viability at 12.5 µM (SARS-CoV-2 [4]; [5]): 46.5% | viability at 25 µM (SARS-CoV-2 [4]; [5]): 42.6% | viability at 50 µM (SARS-CoV-2 [4]; [5]): 32.3% | viability at 100 µM (SARS-CoV-2 [4]; [5]): 40.4% | viability at 100 µM (SARS-CoV-2 [4]; [6]): ≤ 40%
